Laboratory results from patent publication US12616203B2, “Use of 3-isoxazolidinones compounds as selective herbicides” (FMC Corporation, priority 2014, dated 2026).
Entries after “also recorded” stand apart in the source; their conditions may differ.

Experiments:
weeds [1] = test: Ex16 PRE greenhouse; type: in vivo; conditions: weed and rate in the words
From the text: (§1) To determine PRE efficacy, five levels of 2,4 DC (36.7% CS) 0, 125, 170, 210, or 250 g ai/ha and five levels of pyroxasulfone (KIH485-85WG) 0, 50, 65, 80, or 95 g ai/ha were applied either alone or as tank-mix. Additional treatments consisted of premix of pyroxasulfone plus fluthiacet-methyl (Anthem™ 23.3%) at 169.9 g ai/ha, S-metolachlor (Dual II Magnum, 82.4%) at 1388 g, and tank-mix of mesotrione (Callisto, 40%) at 123 g plus S-metolachlor at 1252 g. […] Treatments were applied before the emergence of black nightshade, giant foxtail, green foxtail, yellow foxtail, large crabgrass, kochia, redroot pigweed, common ragweed, and barnyardgrass.
Flats were watered and fertilized routinely after treatment application. Each treatment was replicated three times.

weeds [2] = test: Ex24 PRE greenhouse; type: in vivo; conditions: weed and rate in the words
From the text: The tested weeds include Giant foxtail (Setaria faberi, SETFA), green foxtail (Setaria virdis, SETVI), yellow foxtail (Setaria pumila, SETLU), black nightshade (Solanum nigrum, SOLNI), kochia (Kochia scoparia, KCHSC), redroot pigweed (Amaranthus retroflexus, AMARE), common ragweed (Ambrosia artemisiifolia, AMBEL), barnyardgrass (Echinochloa crus-galli, ECHCG), large crabgrass (Digitaria sanguinalis, DIGSA).
as §1, with “DC-21” for “DC”, “Magnum®,” for “Magnum,”, “(Callisto®,” for “(Callisto,”, “bamyardgrass. […] Flats were watered and fertilized routinely after treatment application. Each treatment was replicated three times.” for “barnyardgrass.”

[3] = system: weeds; Wheat, barley, and oil seed rape (OSR); test: Ex19 PRE greenhouse; type: in vivo; conditions: rate in the words
From the text: In this study, the crops tested included Wheat, barley, and oil seed rape (OSR).
To determine weed efficacy and wheat, barley or OSR selectivity, 2,4 DC (CS 36.7%) and Diflufenican (CS 19.5%) were applied preemergence either alone or as tank-mix partners at the following rates. 2,4 DC was applied at 125, 170, 210 and 250 g ai/ha while Diflufenican was applied at 50, 75, and 100 g ai/ha. Pyroxasulfone (KIH-485, 85%) at 74.3 g ai/ha, pendimethalin (Prowl 3.3EC, 37.4%) at 1200 g ai/ha, or a premix of chlorsulfuron plus metsulfuron-methyl (Report Extra, 75%) at 15.8 g ai/ha were applied as commercial standards.
Herbicides included as standards for comparison were pyroxasulfone, pendimethalin, and a pre mix of chlorsulfuron plus metsulfuron methyl, all applied at labeled rates as indicated above. Treatments were replicated 3 times. […] Thereafter flats were watered and fertilized routinely.

weeds [4] = test: Ex20 PRE greenhouse; type: in vivo; conditions: weed and rate in the words
From the text: Herbicides: • 2,4 DC-21 (36.7% CS): 125, 170, 210, or 250 g ai/ha alone and as tank-mix with dimethenamid-P • Dimethanamid-P (Outlook, 63.9%): 250, 375, 500 g ai/ha in combination with 2,4 DC and alone, additional treatment alone at 750 g ai/ha. • Metazachlor (Butisan 43.1%): 500 g ai/ha
Herbicides included as standards for comparison were metazachlor plus dimethenamid-P (500 g) as tank mix combination. […] Treatments were replicated 3 times. […] Thereafter flats were watered and fertilized routinely.

Wild buckwheat = test: Ex15 PRE 2,4-DC + S-metolachlor, % control 28 DAT, Colby; type: in vivo, Polygonum convolvulus
From the text: The weeds tested in this study were redroot pigweed (Amaranthus retroflexus, AMARE), Jimsonweed (Datura stramonium, DATST), black nightshade (Solanum nigrum, SOLNI), large crabgrass (Digitaria sanguinalis, DIGSA), Pennsylvania smartweed (Polygonum pensylvanicum, POLPY), horseweed (Conyza canadensis, ERICA), wild buckwheat (Polygonum convolvulus, POLCO). The crop tested was Corn (var. Viking).
To determine PRE efficacy and corn injury, five rates of each 2,4 DC (36.7% CS) and S-metolachlor (Dual II Magnum®, 82.4%) were applied either alone or as tank-mix. 2,4 DC was applied at 0, 125, 170, 210, or 250 g ai/ha and S-metolachlor was applied at 0, 267, 534, 801, or 1070 g ai/ha. Additional treatments included application of premix of pyroxasulfone plus fluthiacet-methyl (Anthem™ 23.3%) at 169.9 g ai/ha and tank-mix of mesotrione (Callisto®, 40%) at 123 g plus S-metolachlor at 1252 g. Treatments were applied just after the planting of large crabgrass, Jimsonweed, black nightshade, redroot pigweed, Pennsylvania smartweed, horseweed, wild buckwheat, and corn.
Flats were watered and fertilized routinely after treatment application. Each treatment was replicated three times. […] Corn injury was rated for bleaching and stunting.

weeds; Wheat and Barley = test: Ex14 POST greenhouse; type: in vivo; conditions: 28 DAT, rate in the words
From the text: The study further assessed post crop safety on Wheat and Barley.
Nonionic surfactant at 0.5% (v/v) was included with commercial standards application. No adjuvant was applied with any other treatments. All plant species were direct seeded into 3″ plastic pots using metro-mix as growth media. At treatment application common lambsquarters was 1.75″, common chickweed was 2″, wild mustard was 2.25″, wild oat was 5.5″, wild buckwheat was 2-5″, Italian ryegrass was 2-3″, wheat was 5.5″, and barley was 4.5″ in height. Plants were watered well before application and not watered 24 h after application. Plants were watered and fertilized routinely after treatment application. Each treatment was replicated four times.

weeds [5] = test: Ex18 PRE greenhouse; type: in vivo; conditions: weed and rate in the words

## CC1(C)CON(Cc2ccc(Cl)cc2Cl)C1=O [2,4-DC, 2-(2,4-dichlorophenyl)methyl-4,4-dimethyl-3-isoxazolidinone]
Weeds [1]
  weed control in words: alone controlled kochia at 210 g ai/ha, barnyardgrass and large crabgrass at 125 g, giant foxtail and green foxtail at 170 g
Weeds [2]
  weed control in words: alone controlled kochia at 210 g ai/ha, barnyardgrass and large crabgrass at 125 g, giant foxtail and green foxtail at 170 g
[3]
  weed control / crop safety in words: applied at 125 g ai/ha provided suppression (70-84% injury) to corn poppy, higher rates controlled (≥85% injury) corn poppy; also recorded: Wheat, barley, and oilseed rape (OSR) were safe (≤10% injury) with all stand alone treatments
Weeds [4]
  weed control in words: applied alone at 125 g ai/ha controlled (≥85% injury) Canada thistle, giant foxtail, goosegrass, and common chickweed
Wild buckwheat; 2,4-DC alone 125 g ai/ha
  X: 15%
Wild buckwheat; 2,4-DC alone 170 g ai/ha
  X: 43%
Wild buckwheat; 2,4-DC alone 210 g ai/ha
  X: 30%
Wild buckwheat; 2,4-DC alone 250 g ai/ha
  X: 32%
weeds; Wheat and Barley
  weed control / crop safety in words: applied alone did not control any weed in the assay, and was safe at all rates on both wheat and barley
Weeds [5]
  weed control in words: controlled goosegrass at ≥170 g ai/ha
